Measured values reported in US20070185150A1, “Therapeutic methods” (priority 2005, published 2007).

Experiments:
[1] = tested on: refractory or advanced malignancies; assay: Phase I trial of oral AP23573: antitumor activity assessed every 2 cycles; assay type: in vivo, patients
Procedure: (§1) Methods: Eligible patients (in cohorts of at least 3 patients) initially are randomized at the same flat, fixed starting dose of 20 mg/day into one of three 28-day dosing schedules, i.e. once daily continuous dosing for 4 days every week (QD×4), 21 of 28 days (QD×21), or all 28 days (QD×28). The subsequent dose level is determined based on review of safety and tolerability during Cycle 1 and enrollment for each schedule proceeds independently. Antitumor activity is assessed every 2 cycles. Whole blood is collected for PK assessment and peripheral blood mononuclear cells collected for PD assessment of the levels of phosphorylated 4E-BP1, a downstream target of mTOR.

sarcoma and other tumors = assay: Additional clinical studies of oral AP23573 on QD×5 schedule: anti-tumor activity (Clinical Benefit Response); assay type: in vivo, patients; settings: QD×5 schedules
Procedure: (§2) Additional clinical studies of AP23573 were conducted using a QD×5 dosing schedule for the delivery of 30, 40 or 50 mg of AP23573/day. A set of patients receiving the 30 mg and 50 mg doses were also given a loading dose on the first day of each week, which doubled the dose that day to 60 and 100 mg, respectively.
(§3) Methods: In a Phase 1/2a trial of single-agent oral AP23573, 17 patients, 9 of whom are sarcoma patients, were studied at the chosen dose and schedule (40 mg QD×5). In addition, of 7 patients who began dosing at 50 mg QD×5, 4 patients (2 of whom are sarcoma patients) underwent dose reduction to 40 mg. Twenty-one patients, therefore, received 40 mg QD×5, of whom 11 are sarcoma patients.
(§4) In another QD×5 study in which the dose on day 1 of each week was doubled (to comprise a loading dose), 7 patients (6 sarcoma patients) received doses of 60, 30, 30, 30 and 30 mg over each week (i.e., 30 mg QD×5, with the dose on day 1 doubled). Five other patients (2 sarcoma patients) received 50 mg QD×5, with the dose on day 1 doubled to 100 mg.
(§5) Overall, 36 patients were dosed on a QD×5 schedule, of whom 12 received loading doses on day 1 of each week.

[2] = Phase I dose escalation trial of oral AP23573: safety, tolerability and maximum tolerated dose; assay type: in vivo, patients
Text: Background: In phase I clinical trials with an intravenous (IV) formulation of the mTOR inhibitor, AP23573, the drug was well-tolerated and active in a broad range of cancers. This trial is undertaken to assess the safety, tolerability and maximum tolerated dose (MTD) of an orally administered dosage form of AP23573. Secondary objectives include characterization of the pharmacokinetic (PK) and pharmacodynamic (PD) profiles of AP23573, as well as antitumor activity.
as §1

[3] = Phase I trial of oral AP23573: whole blood PK assessment; assay type: in vivo, patients; settings: three schedules, 20 mg/day, Day 1 of Cycle 1, preliminary PK analysis
Procedure: as §1

[4] = tested on: phosphorylated 4E-BP1, a downstream target of mTOR; assay: Phase I trial of oral AP23573: PD assessment of phosphorylated 4E-BP1 levels in peripheral blood mononuclear cells; assay type: in vivo, patients
Procedure: as §1

[5] = Additional clinical studies of oral AP23573 on QD×5 schedule: tolerability; assay type: in vivo
Procedure: as §2, §3, §4, §5

Question: With `CO[C@H]1C[C@@H]2CC[C@@H](C)[C@@](O)(O2)C(=O)C(=O)N2CCCC[C@H]2C(=O)O[C@H]([C@H](C)C[C@@H]2CC[C@@H](OP(C)(C)=O)[C@H](OC)C2)CC(=O)[C@H](C)/C=C(\C)[C@@H](O)[C@@H](OC)C(=O)[C@H](C)C[C@H](C)/C=C/C=C/C=C/1C` [AP23573] as the compound, how does the “antitumor activity (decrease)” value ([1]; patient with metastatic breast carcinoma, qd×4, 20 mg/day cohort) read?
Answer: The value was 22%.

Question: And the “antitumor activity (decrease)” value ([1]; patient with metastatic renal cell carcinoma, qd×21, 20 mg/day cohort)?
Answer: The value was 21%.

Question: What about the disease status ([1]; patient with soft tissue sarcoma, QD×4, 20 mg/day cohort, after 2 cycles) of the same compound?
Answer: Its disease status is “stable disease”.

Question: And the “evaluable sarcoma patients that were CBRs” value (sarcoma and other tumors)?
Answer: Its value is 43%.

Question: What about the “patients achieving a Clinical Benefit Response (CBR)” value (sarcoma and other tumors; of the 26 evaluable patients) of the same compound?
Answer: Its value is “Seven”.

Question: And the “dose-limiting toxicity (DLT)” value ([2]; QD×4 20 mg/day cohort)?
Answer: Its value is “no dose-limiting toxicity (DLT) was reported”.

Question: And the “dose-limiting toxicity (DLT)” value ([2]; QD×4 30 mg/day schedule)?
Answer: The value was “no DLTs”.

Question: And the side effects ([2]; QD×4 60 and 70 mg/day cohort)?
Answer: Its side effects is “side effects were reported”.

Question: And the “maximum tolerated daily dose” value ([2]; QD×4 schedule)?
Answer: The value was 50 mg/day.

Question: And the “dose-limiting toxicity (DLT)” value ([2]; QD×21 cohort, 20 mg/day)?
Answer: Its value is “severe stomatitis and fatigue”.

Question: And the “maximum tolerated daily dose” value ([2]; QD×21 schedule)?
Answer: Its value is 10 mg/day.

Question: What about the “dose-limiting toxicity (DLT)” value ([2]; QD×28 cohort, 20 mg/day) of the same compound?
Answer: The value was “severe stomatitis and fatigue”.

Question: What about the “maximum tolerated daily dose” value ([2]; QD×28 schedule) of the same compound?
Answer: The value was 15 mg/day.

Question: What about the “severity of adverse events related to AP23573 during Cycle 1” value ([2]; three schedules) of the same compound?
Answer: The value was “mild or moderate in severity, reversible”.

Question: What about the “adverse events related to AP23573 during Cycle 1 in at least 2 patients” value ([2]; three schedules, 10 to 30 mg/day) of the same compound?
Answer: Its value is “mucositis, fatigue, rash, diarrhea, anorexia, and nausea”.

Question: And the Cmax range [3]?
Answer: Its Cmax range is 77 to 163 ng/mL.

Question: What about the “median Cmax” value [3] of the same compound?
Answer: Its value is 98.5 ng/mL.

Question: What about the “reduction of phosphorylated 4E-BP1 levels” value ([4]; 1 day after dosing) of the same compound?
Answer: The value was > 80%.

Question: And the “phosphorylated 4E-BP1 levels during the dosing period” value ([4]; during the dosing period)?
Answer: The value was “remain reduced during the dosing period”.

Question: What about the side-effects ([5]; 40 mg QD×5) of the same compound?
Answer: The side-effects was “generally mild or moderate and manageable”.

Question: And the “tolerability of dose level” value ([5]; 50 mg QD×5 with the dose on day 1 doubled to 100 mg)?
Answer: The value was “exceed the maximum tolerated dose”.
